Measurements taken from patent US7619089B2, “Derivatives of N-heterocyclylmethylbenzamides, preparation method thereof and application of same in therapeutics” (Sanofi-Aventis, priority 2003, dated 2009).
Where a name gives a salt, the structure may show the parent alone.

target: T1, native human transporter glyt1 (Homo sapiens, UniProt P48067); experiment: Transport of glycine ([14C]glycine capture) in SK-N-MC cells expressing the native human transporter glyt1; type: cell-based; settings: 10 μM [14C]glycine, 10 min at 37° C., pH 7.4, read-out: IC50, concentration which reduces by 50% the specific capture of glycine
T1 construct: expressing the native human transporter glyt1; endogenous in cells; host or cells: SK-N-MC cells (human neuroepithelial cells)
T1 sequence (P48067 1-706): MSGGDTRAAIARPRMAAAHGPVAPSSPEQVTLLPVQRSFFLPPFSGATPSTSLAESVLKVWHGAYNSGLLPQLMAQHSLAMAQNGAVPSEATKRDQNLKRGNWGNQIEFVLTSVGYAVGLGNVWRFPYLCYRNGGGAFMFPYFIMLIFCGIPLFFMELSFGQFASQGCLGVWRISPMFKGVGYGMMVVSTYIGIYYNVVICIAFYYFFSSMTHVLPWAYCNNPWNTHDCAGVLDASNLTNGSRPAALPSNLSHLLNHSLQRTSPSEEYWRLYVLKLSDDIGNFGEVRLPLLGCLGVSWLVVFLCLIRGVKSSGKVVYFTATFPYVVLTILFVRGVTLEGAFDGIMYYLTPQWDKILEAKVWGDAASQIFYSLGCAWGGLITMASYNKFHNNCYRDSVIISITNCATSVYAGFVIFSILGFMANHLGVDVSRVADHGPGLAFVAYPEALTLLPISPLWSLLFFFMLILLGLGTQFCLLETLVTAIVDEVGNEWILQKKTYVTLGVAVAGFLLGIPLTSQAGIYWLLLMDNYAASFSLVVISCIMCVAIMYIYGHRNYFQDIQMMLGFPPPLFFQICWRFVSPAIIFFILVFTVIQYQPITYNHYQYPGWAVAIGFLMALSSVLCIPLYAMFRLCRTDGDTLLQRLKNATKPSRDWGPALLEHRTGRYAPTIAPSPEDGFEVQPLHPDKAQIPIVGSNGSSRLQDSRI
Experimental: Study of the Transport of Glycine in SK-N-MC Cells Expressing the Native Human Transporter Glyt1.
The capture of [^14C]glycine is studied in SK-N-MC cells (human neuroepithelial cells) expressing the native human transporter glyt1 by measuring the radioactivity incorporated in the presence or in the absence of the test compound. The cells are cultured in a monolayer for 48 h in plates pretreated with fibronectin at 0.02%. On the day of the experiment, the culture medium is removed and the cells are washed with a Krebs-HEPES ([4-(2-hydroxyethyl)piperazine]1-ethanesulfonic acid) buffer at pH 7.4. After a preincubation of 10 min at 37° C. in the presence either of buffer (control batch), or of test compound at various concentrations, or of 10 mM glycine (determination of the nonspecific capture), 10 μM [^14C]glycine (specific activity 112 mCi/mmol) are then added. The incubation is continued for 10 min at 37° C., and the reaction is stopped by 2 washes with a Krebs-HEPES buffer at pH 7.4. The radioactivity incorporated by the cells is then estimated after adding 100 μl of liquid scintillant and stirring for 1 h. The counting is performed on a Microbeta Tri-lux™ counter. The efficacy of the compound is determined by the IC50, the concentration of the compound which reduces by 50% the specific capture of glycine, defined by the difference in radioactivity incorporated by the control batch and the batch which received the glycine at 10 mM.

| Compound | IC50 [nM] |
| --- | --- |
| O=C(NC(c1ccccc1)C1CC2CCN1CC2)c1c(Cl)ccc(C(F)(F)F)c1Cl (stereo not drawn) [Compound No. 4, threo-2,6-Dichloro-N-[(1-azabicyclo[2.2.2]oct-2-yl)phenylmethyl]-3-trifluoromethylbenzamide hydrochloride 1:1] | 4 |
| C=CC1CN2CCC1CC2C(NC(=O)c1cccc(C(F)(F)F)c1Cl)c1ccnc2ccccc12 [Compound No. 14, 2-Chloro-N-(8α,9S)cinchonan-9-yl)-3-trifluoromethyl-benzamide hydrochloride 2:1] | 70 |
| O=C(NC(c1ccccc1)C1CC2CCN1CC2)c1cccc(C(F)(F)F)c1Cl (stereo not drawn) [Compound No. 3, threo-2-Chloro-N-[(1-azabicyclo[2.2.2]oct-2-yl)phenyl-methyl]-3-trifluoromethylbenzamide hydrochloride 1:1] | 17 |
| O=C(N[C@@H](c1ccccc1)[C@@H]1CC2CCN1CC2)c1c(Cl)ccc(C(F)(F)F)c1Cl [Compound No. 17] | 1 |
| O=C(NC(c1ccc(F)cc1)C1CC2CCN1CC2)c1c(Cl)ccc(C(F)(F)F)c1Cl (stereo not drawn) [Compound No. 26, threo-N-[1-Azabicyclo[2.2.2]oct-2-yl(4-fluorophenyl)-methyl]-2,6-dichloro-3-(trifluoromethyl)benzamide hydrochloride 1:1] | 70 |

target: T2, transporter glyt2 (Mus musculus, UniProt Q761V0); experiment: Transport of glycine ([14C]glycine capture) in mouse spinal cord homogenate; type: biochemical; settings: 10 μM [14C]glycine, 10 min at 25° C., pH 7.4, read-out: IC50, concentration reducing by 50% the specific capture of glycine
T2 construct: from tissue; host or cells: mouse spinal cord homogenate (Iffa Crédo OF1 male mice)
T2 sequence (Q761V0 1-799): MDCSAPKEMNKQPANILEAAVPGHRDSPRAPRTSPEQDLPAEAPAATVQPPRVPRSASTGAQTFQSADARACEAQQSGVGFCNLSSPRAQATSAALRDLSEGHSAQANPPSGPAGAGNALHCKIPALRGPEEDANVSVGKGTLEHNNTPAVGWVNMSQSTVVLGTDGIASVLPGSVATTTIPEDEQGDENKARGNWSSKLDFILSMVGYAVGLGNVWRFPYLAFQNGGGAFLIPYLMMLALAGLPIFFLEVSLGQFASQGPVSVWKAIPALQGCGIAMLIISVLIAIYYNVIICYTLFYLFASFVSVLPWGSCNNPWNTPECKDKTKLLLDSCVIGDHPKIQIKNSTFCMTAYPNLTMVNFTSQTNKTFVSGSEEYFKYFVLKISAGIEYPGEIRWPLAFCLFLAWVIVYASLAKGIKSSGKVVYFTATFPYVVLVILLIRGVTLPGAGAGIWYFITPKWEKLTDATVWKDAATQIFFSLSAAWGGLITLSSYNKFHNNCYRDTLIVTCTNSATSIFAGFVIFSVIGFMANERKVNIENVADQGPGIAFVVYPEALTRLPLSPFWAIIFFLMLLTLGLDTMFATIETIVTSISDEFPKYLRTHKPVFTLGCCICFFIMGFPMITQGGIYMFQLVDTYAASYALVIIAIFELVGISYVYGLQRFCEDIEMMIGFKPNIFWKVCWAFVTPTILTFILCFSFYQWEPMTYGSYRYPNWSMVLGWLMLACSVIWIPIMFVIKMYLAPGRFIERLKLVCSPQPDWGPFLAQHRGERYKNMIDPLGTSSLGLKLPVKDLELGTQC
From the text: Study of the Transport of Glycine in Mouse Spinal Cord Homogenate
The capture of [^14C]glycine by the transporter glyt2 is studied in mouse spinal cord homogenate by measuring the radioactivity incorporated in the presence or in the absence of the compound to be studied.
After the animals have been humanely killed (Iffa Crédo OF1 male mice weighing 20 to 25 g on the day of the experiment), the spinal cord of each animal is rapidly removed, weighed and stored on ice. The samples are homogenized in a Krebs-HEPES ([4-(2-hydroxyethyl)piperazine]1-ethanesulfonic acid) buffer, pH 7.4, at a rate of 25 ml/g of tissue.
50 μl of homogenate are preincubated for 10 min at 25° C. in the presence of Krebs-HEPES buffer, pH 7.4 and of compound to be studied at various concentrations, or of 10 mM glycine in order to determine the nonspecific capture. The [^14C]glycine (specific activity=112 mCi/mmol) is then added for 10 min at 25° C. at the final concentration of 10 μM. The reaction is stopped by filtration under vacuum and the radioactivity is estimated by solid scintillation by counting on a Microbeta Tri-lux™ counter.
The efficacy of the compound is determined by the concentration IC50 capable of reducing by 50% the specific capture of glycine, defined by the difference in radioactivity incorporated by the control batch and the batch which received the 10 mM glycine.

| Compound | IC50 [nM] |
| --- | --- |
| O=C(N[C@@H](c1ccccc1)[C@@H]1CC2CCN1CC2)c1c(Cl)ccc(C(F)(F)F)c1Cl [Compound No. 17] | 690 |
